Paper PMC7395068, “The evolution of strategies to minimise the risk of human drug-induced liver injury (DILI) in drug discovery and development” (Archives of Toxicology, 2020)
Read-outs that look alike come from different tables or passages of the source.

How the values were obtained:
hLiMTs = test: Combined HCI (HCS) and cellular ATP 3D assay in hLiMTs
[1] = cited from earlier work
rBsep = details: In vitro Assay; ref Dawson 2012; cited from earlier work
PHH liver spheroid = tested on: PHH liver spheroid; parameters: method as in Foster et al. 2019; details: liver-chip of comparable sensitivity, ref Foster et al. 2019; cited from earlier work
[2] = tested on: THLE-Null and THLE-3A4 cells; details: In vitro Assay; ref Gustafsson 2014; cited from earlier work
[3] = plasma free fraction; cited from earlier work
HepG2 cells [4] = details: cited from earlier work
[5] = phase I clinical trials; ref Manning and Swartz 1995; McKenzie et al. 1995; cited from earlier work
HepG2 cells [6] = details: cited from earlier work; remark: listed apart in the source
[7] = Plasma free fraction (fu) and unbound Cmax (Cmax,u); type: in vitro ADME, human; details: unbound plasma Cmax
Experimental: The prediction of DILI severity was evaluated further using the 3D combined HCI assays using plasma-free fraction. The majority of fu values were obtained from literature, when unavailable in-house prediction was utilised. Unbound plasma Cmax concentrations (Cmax,u) were derived by multiplying total plasma Cmax with the corresponding free fraction (fu) for each compound.

PHH spheroids [8] = details: cited from earlier work
HepaRG spheroids = test: Combined HCI (HCS) and cellular ATP 3D assay in HepaRG spheroids; details: for AC50 / minimal effective concentration: Homo sapiens
[9] = read-out: Human plasma Cmax; total plasma Cmax.tot, median of 9 literature references; cited from earlier work
PHH spheroids [10] = tested on: PHH spheroids; parameters: method as in Bell et al. 2016; details: 48-h exposure; ref Bell et al. 2016; cited from earlier work
HepG2 cells [11] = details: cited from earlier work; remark: listed apart in the source
[12] = cited from earlier work; remark: listed apart in the source
[13] = Microtissue model structural based (HCI), combined HCS and ATP, MEC < 25 × Cmax.tot cut-off
[14] = In vitro Assay, ref Persson 2013

Question: For `O=c1[nH]c(=O)n([C@@H]2O[C@H](CO)[C@@H](O)[C@@H]2F)cc1I` [fialuridine], which AC50 (hLiMTs; Homo sapiens, read-out: ATP endpoint AC50) is on record?
Answer: 6.3 µM

Question: And the minimal effective concentration (hLiMTs; Homo sapiens, read-out: ATP endpoint MEC)?
Answer: 0.932 µM

Question: And the minimal effective concentration (hLiMTs; Homo sapiens, read-out: HCS endpoint MEC)?
Answer: 6.54 µM

Question: What about the “DILI prediction hLiMTs (HCS-MEC)” value (hLiMTs; [13]) of the same compound?
Answer: +VE (MEC < 25 × Cmax.tot cut-off)

Question: What about the “hLiMTs <25x Avg Cmax ATP” value (hLiMTs; hLiMTs, ATP endpoint, cut-off <25x Avg Cmax) of the same compound?
Answer: +ve

Question: What about the “hLiMTs <100x Avg Cmaxu ATP” value (hLiMTs; hLiMTs, ATP endpoint, cut-off <100x Avg Cmaxu) of the same compound?
Answer: +ve (<100x Avg Cmaxu)

Question: And the “hLiMTs <25x Avg Cmax HCS” value (hLiMTs; hLiMTs, HCS endpoints, cut-off <25x Avg Cmax)?
Answer: +ve

Question: And the “hLiMTs <100x Avg Cmaxu HCS” value (hLiMTs; hLiMTs, HCS endpoints, cut-off <100x Avg Cmaxu)?
Answer: +ve (<100x Avg Cmaxu)

Question: And the “hLiMTs <25x Avg Cmax All” value (hLiMTs; hLiMTs, all endpoints (ATP and HCS), cut-off <25x Avg Cmax)?
Answer: +ve

Question: What about the “hLiMTs Cmax max All” value (hLiMTs; hLiMTs, all endpoints, Cmax max used) of the same compound?
Answer: +ve

Question: And the “hLiMTs Cmax min All” value (hLiMTs; hLiMTs, all endpoints, Cmax min used)?
Answer: +ve

Question: What about the “hLiMTs <10 uM All” value (hLiMTs; hLiMTs, all endpoints, cut-off <10 uM) of the same compound?
Answer: +ve (<10 uM)

Question: And the “hLiMTs <100x Avg Cmaxu All” value (hLiMTs; hLiMTs, all endpoints, cut-off <100x Avg Cmaxu)?
Answer: +ve (<100x Avg Cmaxu)

Question: And the “DILI severity category (Chen et al. [2016])” value ([1]; LTKB DILIrank category, ref Chen et al. 2016)?
Answer: Most

Question: What about the “DILI severity category (Chen 2016)” value ([1]; human DILI classification, LTKB DILIrank, ref Chen et al. 2016) of the same compound?
Answer: Most

Question: What about the DILI severity category ([1]; human DILI severity, ref Chen et al.) of the same compound?
Answer: Most

Question: What about the “DILI +VE (5-8), DILI -VE (-4)” value ([1]; ref Chen 2016) of the same compound?
Answer: +VE

Question: And the DILI severity category ([1]; ref Chen 2016)?
Answer: vMost-DILI-Concern

Question: What about the “Inhibition of rBsep cutoff<1& cmax u>.2” value (rBsep) of the same compound?
Answer: -VE

Question: What about the “Inhibition of rBsep cutoff<3” value (rBsep) of the same compound?
Answer: -VE

Question: And the “detection in 3D microtissues” value (PHH liver spheroid)?
Answer: detected

Question: And the THLE-Null [2]?
Answer: -VE

Question: And the THLE-Null/3A4 [2]?
Answer: -VE

Question: What about the fu [3] of the same compound?
Answer: 0.360

Question: And the Cluser analysis (HepG2 cells [4]; [14])?
Answer: -VE

Question: And the “Structural based (HCI)” value (HepG2 cells [4]; [14])?
Answer: +VE

Question: What about the “DILI in vitro assay prediction, Persson (2013)” value (HepG2 cells [4]; Structural based (HCI), HepG2, ref Persson et al. 2013) of the same compound?
Answer: -VE

Question: And the clinical liver finding [5]?
Answer: fatal hepatotoxicity

Question: What about the “Structural based (HCI)” value (HepG2 cells [6]; In vitro Assay, ref Tolosa 2012) of the same compound?
Answer: +VE

Question: And the “DILI in vitro assay prediction, Tolosa (2012)” value (HepG2 cells [6]; Structural based (HCI), HepG2, ref Tolosa et al. 2012)?
Answer: +VE

Question: What about the “Human plasma Cmax,u” value [7] of the same compound?
Answer: 295 nM

Question: What about the “hLiMTs ATP <20 x Cmax” value (PHH spheroids [8]; In vitro Assay, ref Vorrink 2018) of the same compound?
Answer: +VE (IC20 < 20 × Cmax.tot cut-off)

Question: What about the “DILI in vitro assay prediction, Vorrink (2018)” value (PHH spheroids [8]; PHH spheroids, ATP, 14 days, IC20 < 20 × Cmax.tot, ref Vorrink et al. 2018) of the same compound?
Answer: +VE (IC20 < 20 × Cmax.tot cut-off)

Question: What about the “HepaRG <25x Avg Cmax ATP” value (HepaRG spheroids; HepaRG, ATP endpoint, cut-off <25x Avg Cmax) of the same compound?
Answer: +ve

Question: And the “HepaRG <100x Avg Cmaxu ATP” value (HepaRG spheroids; HepaRG, ATP endpoint, cut-off <100x Avg Cmaxu)?
Answer: +ve (<100x Avg Cmaxu)

Question: And the “HepaRG <25x Avg Cmax HCS” value (HepaRG spheroids; HepaRG, HCS endpoints, cut-off <25x Avg Cmax)?
Answer: +ve

Question: And the “HepaRG <100x Avg Cmaxu HCS” value (HepaRG spheroids; HepaRG, HCS endpoints, cut-off <100x Avg Cmaxu)?
Answer: +ve (<100x Avg Cmaxu)

Question: What about the “HepaRG <25x Avg Cmax All” value (HepaRG spheroids; HepaRG, all endpoints (ATP and HCS), cut-off <25x Avg Cmax) of the same compound?
Answer: +ve

Question: And the “HepaRG Cmax max All” value (HepaRG spheroids; HepaRG, all endpoints, Cmax max used)?
Answer: +ve

Question: What about the “HepaRG Cmax min All” value (HepaRG spheroids; HepaRG, all endpoints, Cmax min used) of the same compound?
Answer: +ve

Question: And the “HepaRG <10 uM All” value (HepaRG spheroids; HepaRG, all endpoints, cut-off <10 uM)?
Answer: +ve (<10 uM)

Question: And the “HepaRG <100x Avg Cmaxu All” value (HepaRG spheroids; HepaRG, all endpoints, cut-off <100x Avg Cmaxu)?
Answer: +ve (<100x Avg Cmaxu)

Question: What about the AC50 (HepaRG spheroids; HepaRG, read-out: ATP endpoint AC50) of the same compound?
Answer: 9.16 µM

Question: And the minimal effective concentration (HepaRG spheroids; HepaRG, read-out: ATP endpoint MEC)?
Answer: 1.28 µM

Question: What about the AC50 (HepaRG spheroids; HepaRG, read-out: HCS endpoint AC50) of the same compound?
Answer: 115 µM

Question: And the minimal effective concentration (HepaRG spheroids; HepaRG, read-out: HCS endpoint MEC)?
Answer: 5.78 µM

Question: And the “DILI prediction HepaRG spheroids (HCS-MEC)” value (HepaRG spheroids; [13])?
Answer: +VE (MEC < 25 × Cmax.tot cut-off)

Question: And the Cmax [9]?
Answer: 820 nM

Question: What about the “toxicity in PHH spheroids” value (PHH spheroids [10]) of the same compound?
Answer: no toxicity

Question: And the “Structural based (HCI)” value (HepG2 cells [11]; In vitro Assay, ref O'Brien 2006)?
Answer: +VE

Question: What about the “DILI in vitro assay prediction, O'Brien (2006)” value (HepG2 cells [11]; Structural based (HCI), HepG2, ref O'Brien et al. 2006) of the same compound?
Answer: +VE (lowest HCI endpoint IC50 (or in the absence of dose–response < 100 µM) < 30 × total human plasma exposure levels (Cmax.tot))

Question: What about the “Assigned DILI category” value ([12]; Chen et al. 2016 or literature alignment, ref Chen et al. 2016) of the same compound?
Answer: 3

Question: What about the “In vivo DILI” value ([12]; ref Dawson 2012) of the same compound?
Answer: +VE

Question: And the “In vivo DILI” value ([12]; ref Gustafsson 2014)?
Answer: +VE

Question: And the “In vivo DILI” value ([12]; ref O'Brien 2006)?
Answer: +VE

Question: And the “In vivo DILI” value ([12]; ref Persson 2013)?
Answer: +VE

Question: And the “In vivo DILI” value ([12]; ref Tolosa 2012)?
Answer: +VE

Question: And the “In vivo DILI” value ([12]; ref Vorrink 2018)?
Answer: +VE
